Here are results for 41 compounds from patent publication US8362000B2, “Azetidinyl diamides as monoacylglycerol lipase inhibitors” (Janssen Pharmaceutica NV, priority 2009, dated 2013).

Molecules are shown by their SMILES. Numbering of substitutions follows the chain as printed. pIC50, pKd: −log10 of the molar value. Like-named read-outs stand apart in the source and are kept apart here.

The target in test [1] is T1, purified wild type MGL (wt-MGLL 6H-11-313) (Homo sapiens, UniProt Q99685).
T1 sequence (Q99685 1-303): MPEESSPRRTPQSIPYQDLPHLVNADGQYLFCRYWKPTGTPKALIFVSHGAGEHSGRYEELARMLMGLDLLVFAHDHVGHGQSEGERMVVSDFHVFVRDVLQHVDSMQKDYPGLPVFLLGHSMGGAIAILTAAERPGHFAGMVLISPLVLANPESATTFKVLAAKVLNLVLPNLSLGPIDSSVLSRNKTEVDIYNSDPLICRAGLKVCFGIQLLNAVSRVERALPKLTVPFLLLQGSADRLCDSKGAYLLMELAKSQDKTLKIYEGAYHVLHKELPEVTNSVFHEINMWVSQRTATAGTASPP

The next test addresses T2, mutant MGL (Homo sapiens, UniProt Q99685, L169S/L176S).
T2 sequence (Q99685 1-303 L169S/L176S): T1 sequence (Q99685 1-303) with L169S, L176S
The test is described as follows: MGL ThermoFluor assay - mutant. It is filed as binding. The following applies: for Kd: read-out: MGL mutant ThermoFluor qKd (μM) (using qNMR conc.). Background: In DSF a fluorescence change marks the thermal transition of the protein.

The mark [2] stands for this setting: ThermoFluor concentration-response, read-out: MGL mutant ThermoFluor Kd.
Setting [3] is: ThermoFluor, compound concentration measured by qNMR, read-out: MGL mutant ThermoFluor qKd (using qNMR conc.).
Where [4] appears, read: ThermoFluor, compound concentration measured by qNMR.
The mark [5] stands for this setting: ThermoFluor thermal stability binding assay, read-out: MGL mutant ThermoFluor Kd.
The mark [6] stands for this setting: compound concentration measured by qNMR, read-out: MGL mutant ThermoFluor qKd (using qNMR conc.).

`O=C(c1ccc2[nH]c(C3CCCCC3)nc2c1)N1CC(N2CCN(C(=O)c3nccs3)CC2)C1` [Cpd 735] gave a negative-log IC50 (pIC50) in test [1] of 6.57. Moreover, the pKd at mutant MGL (setting [2]) is 6.80.

Regarding `Cc1cc(Br)ccc1C(=O)N1CC(N2CCN(C(=O)c3nccs3)CC2)C1` [Cpd 786], the pIC50 in test [1] was 5.92. On mutant MGL (setting [3]), the pKd is 6.18.

Consider `O=C(c1cc2cc(-c3ccc(F)cc3)cnc2o1)N1CC(N2CCN(C(=O)c3nccs3)CC2)C1` [Cpd 1213], for which the negative logarithm of the IC50 (pIC50) in test [1] was 6.69. Besides, the Kd at mutant MGL (setting [4]) amounted to 0.765 µM.

For the compound `O=C(c1cc(-c2cccc(C(F)(F)F)c2)cs1)N1CC(N2CCN(C(=O)c3nccs3)CC2)C1` [Cpd 1321], in test [1], the pIC50 was over 8.30. Besides, at mutant MGL (setting [4]), the Kd stood at 0.067 µM.

`O=C(c1nccs1)N1CC(N2CCN(C(=O)c3ccc(-c4ccccc4)cc3)C(Cc3ccccc3)C2)C1` (stereo not drawn) [Cpd 1266, 2-Benzyl-1-(biphenyl-4-ylcarbonyl)-4-[1-(1,3-thiazol-2-ylcarbonyl)azetidin-3-yl]piperazine]: the pIC50 in test [1] is 5.97. The pKd at mutant MGL (setting [2]) is 7.49.

As to `O=C(c1cc2cc(Cl)ccc2o1)N1CC(N2CCN(C(=O)c3nccs3)CC2)C1` [Cpd 818], the pIC50 in test [1] was 5.57. In addition, on mutant MGL (setting [2]), the pKd is 6.00.

With `O=C(c1cscn1)N1CCN(C2CN(C(=O)c3cc4cc(Br)cnc4o3)C2)CC1` [Cpd 1448], the pIC50 in test [1] is under 4.78. On mutant MGL (setting [5]), the pKd was 5.15.

In test [1], `O=C(c1nccs1)N1CCN(C2CN(C(=O)c3sc4cc(F)ccc4c3C3CC3)C2)CC1` [Cpd 714, 1-{1-[(3-Cyclopropyl-6-fluoro-1-benzothiophen-2-yl)carbonyl]azetidin-3-yl}-4-(1,3-thiazol-2-ylcarbonyl)piperazine] had a negative-log IC50 (pIC50) of 6.87. Also, the pKd at mutant MGL (setting [2]) was 8.30.

Compound `O=C(c1ccc2c(c1)ncn2-c1ccccc1)N1CC(N2CCN(C(=O)c3nccs3)CC2)C1` [Cpd 1207] gave a pIC50 in test [1] of 6.75. For the same compound, the pKd at mutant MGL (setting [2]) is 7.85.

Take `Cc1c(C(=O)N2CC(N3CCN(C(=O)c4ccccc4)CC3)C2)sc2cc(F)ccc12` [Cpd 516]: in test [1], the pIC50 is 6.33. The pKd at mutant MGL (setting [5]) was 7.40.

`O=C(c1cc2ccc(C(F)(F)F)nc2[nH]1)N1CC(N2CCN(C(=O)c3nccs3)CC2)C1` [Cpd 799] had a pIC50 in test [1] of 5.78. At mutant MGL (setting [2]), the pKd was 6.18.

For `O=C(c1ccc(SCc2cccc(C(F)(F)F)c2)cc1)N1CC(N2CCN(C(=O)C(F)(F)F)CC2)C1` [Cpd 974], the pIC50 in test [1] was 6.75. For the same compound, on mutant MGL (setting [6]), the pKd is 5.75.

Take `O=C(c1ccccc1)N1CCN(C2CN(C(=O)c3ccc4c(cnn4-c4ccc(F)c(F)c4)c3)C2)CC1` [Cpd 590]: the pIC50 in test [1] was 6.73. Besides, on mutant MGL (setting [4]), the Kd is 0.182 µM.

The compound `O=C(CCCc1ccccc1)N1CC(N2CCN(C(=O)c3nccs3)CC2)C1` [Cpd 1434] showed a pIC50 in test [1] of under 4.78. The pKd at mutant MGL (setting [5]) is 4.27.

The compound `O=C(c1ccc(-c2cccc(C(F)(F)F)c2)cc1)N1CC(N2CCN(C(=O)c3ccc(Cl)o3)CC2)C1` [Cpd 1078] showed a pIC50 in test [1] of 8.05. The Kd on mutant MGL (setting [4]) came to 0.005 µM.

In turn, `O=C(c1cscn1)N1CCN(C2CN(C(=O)c3cccc4nc(-c5cccc(Cl)c5)oc34)C2)CC1` [Cpd 1238] had a pIC50 in test [1] of 6.36. Further, on mutant MGL (setting [5]), the pKd is 6.90.

As for `O=C(c1cn2cc(C(F)(F)F)ccc2n1)N1CC(N2CCN(C(=O)c3nccs3)CC2)C1` [Cpd 1453], the pIC50 in test [1] is under 4.78. Further, at mutant MGL (setting [4]), the Kd came to 10 µM.

In the case of `O=C(c1cscn1)N1CCN(C2CN(C(=O)c3[nH]c4nc(C(F)(F)F)ccc4c3Br)C2)CC1` [Cpd 774], the pIC50 in test [1] was 6.07. In addition, the pKd on mutant MGL (setting [3]) is 6.60.

In turn, `O=C(COc1ccc(C(=O)N2CC(N3CCN(C(=O)c4nccs4)CC3)C2)cc1)Nc1cccc(C(F)(F)F)c1` [Cpd 1041] had a negative-log IC50 (pIC50) in test [1] of 7.72. For the same compound, the pKd at mutant MGL (setting [3]) is 6.40.

In test [1], `O=C(c1ccc2c(c1)[nH]c(=O)n2-c1ccc(C(F)(F)F)cc1)N1CC(N2CCN(C(=O)c3cscn3)CC2)C1` [Cpd 942] gave a pIC50 of 6.67. The pKd at mutant MGL (setting [2]) was 6.87.

Take `Cc1c(C(=O)N2CC(N3CCN(C(=O)c4cscn4)CC3)C2)nn(-c2ccc(Cl)cc2Cl)c1-c1ccc(Cl)cc1` [Cpd 1198]: in test [1], the pIC50 was 6.84. Further, the pKd at mutant MGL (setting [5]) is 7.52.

In the case of `O=C(c1ccc(-c2ccccc2)cc1)N1CCN(C2CN(C(=O)c3csnn3)C2)CC1` [Cpd 1276, 1-(Biphenyl-4-ylcarbonyl)-4-[1-(1,2,3-thiadiazol-4-ylcarbonyl)azetidin-3-yl]piperazine], in test [1], the pIC50 is 5.75. For the same compound, the pKd on mutant MGL (setting [2]) is 6.09.

The compound `Cc1cc(C(=O)N2CC(N3CCN(C(=O)c4nccs4)CC3)C2)c(C)n1CC(F)(F)F` [Cpd 788] gave a pIC50 in test [1] of 5.91. Moreover, the pKd at mutant MGL (setting [3]) is 5.70.

As for `O=C(c1ccc2c(ccn2-c2ccc(C(F)(F)F)cn2)c1)N1CC(N2CCN(C(=O)c3nccs3)CC2)C1` [Cpd 1314, 5-({3-[4-(1,3-Thiazol-2-ylcarbonyl)piperazin-1-yl]azetidin-1-yl}carbonyl)-1-[5-(trifluoromethyl)pyridin-2-yl]-1H-indole], in test [1], the pIC50 is over 8.30. In addition, the pKd on mutant MGL (setting [3]) was 9.00.

In turn, `O=C(c1ccc2c(c1)ncn2CC(F)(F)F)N1CC(N2CCN(C(=O)c3cscn3)CC2)C1` [Cpd 841] gave a pIC50 in test [1] of 5.28. Moreover, at mutant MGL (setting [6]), the pKd is 6.04.

Regarding `O=C(c1ccc2nc(-c3ccccc3)oc2c1)N1CCN(C2CN(C(=O)c3nccs3)C2)CC1` [Cpd 1233], in test [1], the pIC50 was 6.46. For the same compound, the pKd on mutant MGL (setting [5]) is 6.72.

Regarding `O=C(c1ccccc1)N1CCN(C2CN(C(=O)c3ccc4c(ccn4-c4ccc(C(F)(F)F)cn4)c3)C2)CC1` [Cpd 586, 5-({3-[4-(Phenylcarbonyl)piperazin-1-yl]azetidin-1-yl}carbonyl)-1-[5-(trifluoromethyl)pyridin-2-yl]-1H-indole], the pIC50 in test [1] was 6.95. Besides, the pKd on mutant MGL (setting [3]) was 7.07.

Take `O=C(c1ccc2c(ccn2-c2ccc(Cl)c(F)c2)c1)N1CC(N2CCN(C(=O)c3nccs3)CC2)C1` [Cpd 1372]: the pIC50 in test [1] is over 8.30. Besides, the Kd on mutant MGL (setting [4]) was found to be 0.002 µM.

With `Cc1c(Cc2ccc(C(F)(F)F)cc2)cccc1C(=O)N1CC(N2CCN(C(=O)c3nccs3)CC2)C1` [Cpd 1008], the pIC50 in test [1] is over 8.30. The pKd on mutant MGL (setting [2]) was 7.05.

`O=C(c1ccc(-n2cnc3ccccc32)cc1)N1CCN(C2CN(C(=O)c3nccs3)C2)CC1` [Cpd 1298] gave a pIC50 in test [1] of 5.41. Moreover, the pKd on mutant MGL (setting [2]) was 6.32.

In test [1], `O=C(c1ccc2cnn(Cc3ccc(F)cc3)c2c1)N1CC(N2CCN(C(=O)c3nccs3)CC2)C1` [Cpd 1051, 1-(4-Fluorobenzyl)-6-({3-[4-(1,3-thiazol-2-ylcarbonyl)piperazin-1-yl]azetidin-1-yl}carbonyl)-1H-indazole] showed a negative logarithm of the IC50 (pIC50) of 6.89. For the same compound, the pKd on mutant MGL (setting [6]) was 6.76.

`O=C(c1ccc2c(c1)[nH]c(=O)n2CC(F)(F)F)N1CC(N2CCN(C(=O)c3cscn3)CC2)C1` [Cpd 943]: in test [1], the pIC50 is 4.98. On mutant MGL (setting [2]), the pKd was 5.98.

`O=C(c1ccc(OCc2ccc3ccccc3n2)cc1)N1CC(N2CCN(C(=O)c3nccs3)CC2)C1` [Cpd 967]: the negative logarithm of the IC50 (pIC50) in test [1] was 8.05. Further, at mutant MGL (setting [5]), the pKd is 7.36.

In test [1], `O=C(c1ccc2c(c1)ncn2C1CCC(F)(F)CC1)N1CC(N2CCN(C(=O)c3cscn3)CC2)C1` [Cpd 834] showed a negative logarithm of the IC50 (pIC50) of 5.34. The pKd on mutant MGL (setting [6]) is 6.63.

Consider `O=C(c1ccccc1)N1CCN(C2CN(C(=O)c3ccc4c(ccn4-c4cc(F)ccc4F)c3)C2)CC1` [Cpd 578], for which the pIC50 in test [1] is 7.20. Moreover, on mutant MGL (setting [4]), the Kd was 0.195 µM.

`O=C(c1ccc2c(ccn2-c2ccc(F)cc2)c1)N1CC(N2CCN(C(=O)C(F)(F)F)CC2)C1` [Cpd 1079, 1-(4-Fluorophenyl)-5-({3-[4-(trifluoroacetyl)piperazin-1-yl]azetidin-1-yl}carbonyl)-1H-indole]: the pIC50 in test [1] is 8.05. Moreover, on mutant MGL (setting [3]), the pKd is 6.57.

`COc1cc(-n2ccc3cc(C(=O)N4CC(N5CCN(C(=O)c6nccs6)CC5)C4)ccc32)ccc1C#N` [Cpd 1115] had a pIC50 in test [1] of 7.80. Further, the Kd at mutant MGL (setting [4]) came to 0.005 µM.

Compound `Cc1c(Cc2ccc(C(F)(F)F)cc2)cccc1C(=O)N1CC(N2CCN(C(=O)c3cncs3)CC2)C1` [Cpd 1015] had a pIC50 in test [1] of 6.11. Besides, at mutant MGL (setting [2]), the pKd is 5.93.

`O=C(c1nccs1)N1CCN(C2CN(C(=O)c3cccc4oc(-c5ccc(Cl)cc5)nc34)C2)CC1` [Cpd 1220]: in test [1], the pIC50 was 6.59. At mutant MGL (setting [5]), the pKd is 7.82.

`O=C(c1ccc2c(ccn2-c2cccc(C(F)(F)F)c2)c1)N1CC(N2CCN(C(=O)c3nccs3)CC2)C1` [Cpd 1356, 5-({3-[4-(1,3-Thiazol-2-ylcarbonyl)piperazin-1-yl]azetidin-1-yl}carbonyl)-1-[3-(trifluoromethyl)phenyl]-1H-indole] gave a pIC50 in test [1] of over 8.30. Besides, the pKd at mutant MGL (setting [2]) was 8.70.

In turn, `O=C(c1ccccc1)N1CC(N2CCN(C(=O)c3ccc(-c4ccccc4)cc3)CC23CC3)C1` [Cpd 606] had a pIC50 in test [1] of 5.69.

The term pIC50 denotes −log10 of the IC50, conventionally taken in molar units. A lower pIC50 goes with a large IC50.
